The record followed here is patent US20080171716A1, “NUCLEIC ACID MODULATION OF TOLL-LIKE RECEPTOR-MEDIATED IMMUNE STIMULATION” (Protiva Biotherapeutics, Inc., priority 2006, published 2008).

The target in data set [1] is T1, TLR7 (Mus musculus, UniProt P58681).
T1 sequence (P58681 27-1050): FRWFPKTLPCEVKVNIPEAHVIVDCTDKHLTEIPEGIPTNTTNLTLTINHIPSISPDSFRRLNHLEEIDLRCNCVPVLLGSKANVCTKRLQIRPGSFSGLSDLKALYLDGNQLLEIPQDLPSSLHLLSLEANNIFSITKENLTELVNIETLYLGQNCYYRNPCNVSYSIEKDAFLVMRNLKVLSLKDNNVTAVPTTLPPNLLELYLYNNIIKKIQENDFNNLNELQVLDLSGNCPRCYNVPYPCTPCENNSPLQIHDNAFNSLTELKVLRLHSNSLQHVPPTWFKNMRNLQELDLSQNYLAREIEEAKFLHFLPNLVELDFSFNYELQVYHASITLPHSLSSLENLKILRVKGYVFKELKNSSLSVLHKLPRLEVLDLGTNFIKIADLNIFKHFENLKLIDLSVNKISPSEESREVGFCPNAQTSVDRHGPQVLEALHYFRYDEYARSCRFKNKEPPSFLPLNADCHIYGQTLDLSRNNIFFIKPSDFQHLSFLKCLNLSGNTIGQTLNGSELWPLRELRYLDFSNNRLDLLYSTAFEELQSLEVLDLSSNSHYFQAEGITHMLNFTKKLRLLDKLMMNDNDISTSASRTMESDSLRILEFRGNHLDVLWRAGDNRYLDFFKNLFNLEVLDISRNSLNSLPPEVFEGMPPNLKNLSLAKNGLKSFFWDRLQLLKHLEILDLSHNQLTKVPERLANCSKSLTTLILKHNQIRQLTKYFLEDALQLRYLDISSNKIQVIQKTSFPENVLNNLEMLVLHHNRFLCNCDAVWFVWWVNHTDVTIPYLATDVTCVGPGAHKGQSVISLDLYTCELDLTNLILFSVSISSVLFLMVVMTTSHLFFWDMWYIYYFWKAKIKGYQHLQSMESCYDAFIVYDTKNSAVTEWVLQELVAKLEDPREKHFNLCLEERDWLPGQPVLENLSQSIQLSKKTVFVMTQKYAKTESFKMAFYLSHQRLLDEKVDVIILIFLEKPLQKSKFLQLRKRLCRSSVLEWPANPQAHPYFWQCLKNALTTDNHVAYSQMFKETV
As to the kind of experiment: In vivo cytokine induction by formulated ssRNA in mice. Set-up: from tissue; host or cells: whole animal: female Balb/C mice, plasma cytokines; species or system Balb/C mice. Particulars: IV. The procedure:
Cytokine ELISA. All cytokines were quantified using sandwich ELISA kits according to the manufacturer's instructions. These were mouse and human IFN-α (PBL Biomedical; Piscataway, N.J.) and IL-6 (eBioscience; San Diego, Calif.).
In Vivo Cytokine Induction. Animal studies were performed at Protiva Biotherapeutics in accordance with Canadian Council on Animal Care guidelines and following protocol approval by the local Animal Care and Use Committee. Female Balb/C mice were subjected to a two-week quarantine and acclimation period prior to use at six to eight-weeks of age. RNA formulations were administered by standard injection in the lateral tail vein in 0.2 ml PBS. Six hours after injection, blood was collected by cardiac puncture and processed as plasma for cytokine analysis. In experiments studying inhibition of cytokine induction by loxoribine, formulated RNA (100 μg) was administered IV 2 h prior to IV administration of 1 mg loxoribine in PBS. Blood was collected by cardiac puncture 2 h after administration of loxoribine and processed as plasma for cytokine analysis.

The target in data set [2] is T1, TLR7. In words: Immunostimulatory ssRNA-induced IFN-α/IL-6 production in murine Flt3L-derived dendritic cells. Particulars: murine Flt3L DC; 1:1 molar ratio; 24 h. Format: cell-based. Details: Femurs and tibiae of female Balb/C mice were isolated; endogenous in cells; host or cells: Flt3L-derived dendritic cells cultured from bone marrow of female Balb/C mice. On the procedure: (§1) Lipid Encapsulation of RNA and ODN. RNA or ODN were encapsulated in liposomes by a process of spontaneous vesicle formation as described in Judge et al., supra, and Jeffs et al., Pharm. Res., 22:362-372 (2005).
(§2) Flt3L-derived dendritic cells (DC) were generated as described in Gilliet et al., J. Exp. Med., 195:953-958 (2002), using 100 ng/ml murine Flt3-ligand (Peprotech) supplemented media. Femurs and tibiae of female Balb/C mice were isolated and rinsed in sterile PBS. The ends of bones were cut and marrow harvested in complete media (RPMI 1640, 10% heat inactivated FBS, 1% penicillin/streptomycin, 2 mM L-glutamine, 1 mM sodium pyruvate, 25 mM HEPES, 50 μM 2-mercaptoethanol). Bone marrow cells were passed through a 70 μm strainer and centrifuged at 1000 rpm for 7 min. and resuspended in complete media supplemented with 100 ng/ml murine Flt3L to 2×10^6 cells/ml. 2 ml of cells were seeded in 6-well plates and 1 ml fresh media was added every two to three days. On day 9 of culture, non-adherent cells were washed in complete media and plated into 96-well plates at concentrations ranging from 0.5 to 2.5×10^5 cells/well. […]
(§3) Cytokine ELISA. All cytokines were quantified using sandwich ELISA kits according to the manufacturer's instructions. […]

For data set [3], the target named is T1, TLR7. As to the kind of experiment: Loxoribine-induced IFN-α/IL-6 production in murine Flt3L-derived dendritic cells. The format is cell-based. Details: Femurs and tibiae of female Balb/C mice were isolated; endogenous in cells; host or cells: Flt3L-derived dendritic cells cultured from bone marrow of female Balb/C mice. Particulars: murine Flt3L DC; 30 μM Lox; 0.2 μM RNA; 24 h. On the procedure: as §1, §2, §3

Setting [4] is: 1:1 molar ratio in lipid particles, 40 μg βgal AS RNA, plasma 6 h.
Setting [5] is: plasma 6 h after administration.

For the substance “polyUmod21: 2′OMe-uridine homopolymer of 21 nucleotides in length (UUUUUUUUUUUUUUUUUUUUU; all 2'-O-methyl, backbone not given here)”, in the data set with TLR7 [1] (setting [4]), the “IFN-α induction by ssRNA agonist when co-formulated” value is “eliminated measurable” and the “IL-6 induction by ssRNA agonist when co-formulated” value is listed as “eliminated measurable”. In the data set with TLR7 [1] (setting [5]), the “plasma IFN-α after administration of the formulated RNA alone” value is given as “no measurable cytokine response” and the “plasma IL-6 after administration of the formulated RNA alone” value is “no measurable cytokine response”. For the same substance, in the data set with TLR7 [2], the “IFN-α production induced by immunostimulatory ssRNA when co-administered” value is recorded as “completely abrogated measurable” and the “IL-6 production induced by immunostimulatory ssRNA when co-administered” value is “completely abrogated measurable”. In addition, in the data set with TLR7 [3], the “inhibition of Lox-mediated IFN-α induction” value is 87+/−11% and the “inhibition of Lox-mediated IL-6 induction” value is 69+/−1%.
